One series deals with T1, DPP-IV (Homo sapiens, UniProt P27487).
T1 construct: The cell extract was obtained from the cells solubilized in a buffer; endogenous in cells; host or cells: Caco-2 (human colon carcinoma), differentiated to induce DPP-IV expression; Nonidet-P40 solubilized extract
Description: DPP-IV assay with Caco-2 cell extract as DPP-IV source. It counts as biochemical. As to conditions: extract of human colon carcinoma cell line Caco-2, AFC substrate 100 μM, 60 minutes, room temperature; read-out: DPP IV inhibition IC50. How it is done: The ability of the substances and their corresponding salts to inhibit DPP-IV activity can be shown in a test set-up in which an extract of the human colon carcinoma cell line Caco-2 is utilized as the DPP-IV source. […] The cell extract was obtained from the cells solubilized in a buffer (10 mM tris HCl, 0.15 M NaCl, 0.04 t.i.u. aprotinin, 0.5% Nonidet-P40, pH 8.0) by centrifugation at 35000 g for 30 minutes at 4° C. (for the removal of cell debris).
The DPP-IV assay was carried out as follows:
50 μl of substrate solution (AFC; AFC is amido-4-trifluoromethylcoumarin), final concentration 100 μM, were introduced into black microtitre plates. 20 μl of assay buffer (final concentrations 50 mM tris HCl pH 7.8, 50 mM NaCl, 1% DMSO) were pipetted in. The reaction was started by addition of 30 μl of solubilized Caco-2 protein (final concentration 0.14 μg of protein per well). […] The reaction was carried out at room temperature; the incubation period was 60 minutes. […] Blank values (corresponding to 0% activity) were obtained in batches without Caco-2 protein (volumes replaced by assay buffer), control values (corresponding to 100% activity) were obtained in batches without addition of substance. […]

A further series concerns rats. In words: Tolerability after oral administration to rats (behaviour). Format: in vivo. As to conditions: oral administration of 10 mg/kg.

T1 sequence (P27487 whole entry): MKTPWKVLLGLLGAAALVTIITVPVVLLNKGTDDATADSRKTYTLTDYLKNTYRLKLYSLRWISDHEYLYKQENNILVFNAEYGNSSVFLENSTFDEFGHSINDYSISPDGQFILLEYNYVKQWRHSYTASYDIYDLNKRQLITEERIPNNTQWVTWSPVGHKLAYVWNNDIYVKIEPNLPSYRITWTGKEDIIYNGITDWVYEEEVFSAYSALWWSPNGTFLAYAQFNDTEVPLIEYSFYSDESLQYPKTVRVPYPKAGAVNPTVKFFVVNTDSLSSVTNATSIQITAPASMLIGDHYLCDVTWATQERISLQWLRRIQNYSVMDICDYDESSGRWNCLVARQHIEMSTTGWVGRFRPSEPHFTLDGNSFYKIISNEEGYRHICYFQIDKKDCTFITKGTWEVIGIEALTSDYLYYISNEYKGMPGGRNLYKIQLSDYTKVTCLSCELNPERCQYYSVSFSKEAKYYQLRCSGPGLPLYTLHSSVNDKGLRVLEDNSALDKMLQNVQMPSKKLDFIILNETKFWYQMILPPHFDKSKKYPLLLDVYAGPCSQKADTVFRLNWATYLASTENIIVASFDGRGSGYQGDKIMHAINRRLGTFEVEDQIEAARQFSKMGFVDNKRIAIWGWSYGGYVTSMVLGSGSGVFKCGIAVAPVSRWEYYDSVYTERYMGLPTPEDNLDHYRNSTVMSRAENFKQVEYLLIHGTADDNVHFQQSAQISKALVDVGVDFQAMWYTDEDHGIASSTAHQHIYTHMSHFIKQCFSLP

In the case of `CC#CCn1c(N2CCNCC2)nc2c1c(=O)n(Cc1nc(C)cc3ccccc13)c(=O)n2C` [1(1), 1-[(3-Methylisoquinolin-1-yl)methyl]-3-methyl-7-(2-butyn-1-yl)-8-(piperazin-1-yl)-xanthine], at DPP-IV, the IC50 was 17 nM.

For the molecule `CC#CCn1c(N2CCCNCC2)nc2c1c(=O)n(Cc1nc(C)cc3ccccc13)c(=O)n2C` [1(2), 1-[(3-Methylisoquinolin-1-yl)methyl]-3-methyl-7-(2-butyn-1-yl)-8-([1,4]diazepan-1-yl)xanthine], on DPP-IV, the IC50 was 9 nM.

In turn, `CC#CCn1c(N2CCCNCC2)nc2c1c(=O)n(Cc1nc(C)c3ccccc3n1)c(=O)n2C` [1(3), 1-[(4-Methylquinazolin-2-yl)methyl]-3-methyl-7-(2-butyn-1-yl)-8-([1,4]diazepan-1-yl)xanthine] displayed a melting point of 188 to 190 °C. Moreover, the IC50 at DPP-IV came to 6 nM.

Turning to `CC#CCn1c(N2CCCNCC2)nc2c1c(=O)n(Cc1nc3ccccc3c3ccccc13)c(=O)n2C` [Example 1(5), 1-[(Phenanthridin-6-yl)methyl]-3-methyl-7-(2-butyn-1-yl)-8-([1,4]diazepan-1-yl)-xanthine], the melting point is 223 to 225 °C.

As for `CC#CCn1c(N2CCNCC2)nc2c1c(=O)n(Cc1nc(C)c3ccccc3n1)c(=O)n2C` [Example 1, 1-[(4-Methylquinazolin-2-yl)methyl]-3-methyl-7-(2-butyn-1-yl)-8-(piperazin-1-yl)-xanthine], in the series on rats, the “changes in the behaviour of the animals” value was “not possible to observe any changes in the behaviour of the animals”.

As usually defined, the IC50 is the concentration that inhibits the measured activity by half. Broadly, the melting point is the temperature of the solid-liquid transition.
